In the METLIN SMRT retention time set (Domingo-Almenara et al. 2019):

Test: gradient 5% acetonitrile 3 min, to 50% in 2 min, to 85% in 15 min, held 3 min, 100 µL/min
Settings: column: Zorbax Extend-C18 2.1 x 50 mm; eluents: water / acetonitrile, 0.1% formic acid
Procedure, shortened: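 Mixtures of ~100 pure standards were chromatographed on a Zorbax Extend-C18 column (2.1 × 50 mm, 1.8 μm) at 100 μL/min using water and acetonitrile, each with 0.1% formic acid. Detection used a quadrupole time-of-flight mass spectrometer in positive and negative ionization mode, and data collection spanned 3 months. Retention time was obtained from adduct peaks picked computationally and each checked manually.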

Row | RP-LC retention time [s] | SMILES
1 | 632 | Cc1ccc(C)c(NC(=O)N2CCN(c3cc(-c4cccnc4)[nH]n3)CC2)c1
2 | 833 | COc1ccc(C(=O)N2CCN(c3nc(CN4CCOCC4)cs3)CC2)cc1
3 | 939 | Cc1[nH]c(C(=O)N2CCC(CC(=O)N3CCN(c4ccccc4)CC3)CC2)c(C)c1C(=O)OC(C)C
4 | 891 | CC(C)c1ccc2oc3nc(N)c(C(=O)O)cc3c(=O)c2c1
5 | 1150 | Cc1ccc(Sc2nccnc2N2CCCC(C(=O)NC3CCCCC3)C2)cc1 (stereo not drawn)
6 | 752 | CCN1CCn2cc(S(=O)(=O)Nc3ccc(Cl)cc3F)cc2C1=O
7 | 692 | CC1=C(c2ccc(C)c(C)c2)S(=O)(=O)N=C1N1CCCN(C(=O)c2ccncc2)CC1
8 | 791 | CCCn1cc(CCNS(=O)(=O)c2cccc3nsnc23)c2cccnc21
9 | 809 | COCCn1c(Cc2cccn2C)nnc1SCC(=O)N1CCCc2ccccc21
10 | 668 | CCOc1ccc2nc(NC3=NCN(CCCOC)CN3)nc(C)c2c1
11 | 1090 | COC(=O)c1c(-c2ccc(Cl)cc2)noc1NC(C)C
12 | 1120 | COc1ccc(C(=O)Nc2nccnc2C(=O)NCC2CCCCC2)cc1
13 | 604 | CN(C)C(=O)c1[nH]c2ccccc2c1N1CCCC1=O
14 | 1310 | CCc1nc(-c2ccc(-c3noc(COc4ccc(F)cc4)n3)cc2)cs1
15 | 1230 | CCOC(=O)C(CC)n1nc2nc(Nc3ccc(C)cc3)cc(C)n2c1=O (stereo not drawn)
16 | 799 | O=C(Cn1c2c(c(=O)n(C3CCCCC3)c1=O)CCC2)NCc1ccc2c(c1)OCO2
17 | 1120 | Cc1nc(-c2ccc(C(F)(F)F)cc2)ncc1C(=O)NCCc1cccs1
18 | 769 | Cc1ccc(C2=NC3(CCN(C(=O)c4c[nH]c5ccccc45)CC3)ON2)cc1
19 | 1210 | CCOc1ccc(NC(=O)C2CCCN(c3nc4ccccc4nc3C(F)(F)F)C2)cc1 (stereo not drawn)
20 | 827 | COc1ccc(C)cc1NC(=O)C1CCN(S(=O)(=O)c2ccc3c(c2)sc(=O)n3C)CC1
21 | 603 | O=C(C1CCCN(c2ccncc2)C1)N1CCCCCC1 (stereo not drawn)
22 | 660 | Cc1ccccc1NC(=O)N1CCC(c2cc3n(n2)CCCN(C)C3=O)CC1

Row | RP-LC retention time [s] | SMILES
23 | 650 | O=C1NCCCn2cc(S(=O)(=O)Nc3ccc(F)cc3Cl)cc21
24 | 703 | CCCC(N[C@@H](C)C(=O)N1[C@H](C(=O)O)C[C@@H]2CCCC[C@@H]21)C(=O)OCC (stereo partly drawn)
25 | 1050 | Cc1cccc(NS(=O)(=O)c2ccc3c(c2)C(=O)N(C)c2ncccc2O3)c1
26 | 811 | CCCN(CC1CCOC1)C(=O)Nc1ccc(CC)cc1 (stereo not drawn)
27 | 695 | CCOC(=O)c1[nH]c(C)c(CCC(=O)N2CCC(C(=O)NCCc3c(C)noc3C)CC2)c1C
28 | 1020 | Cc1cc(C)c(S(=O)(=O)NCc2c(-c3ccccc3)nc3sc(C)nn23)c(C)c1
29 | 712 | O=C(O)CC(CC(=O)NCc1ccccc1)c1ccc(Br)cc1 (stereo not drawn)
30 | 635 | COCCNC(=O)c1ncoc1-c1ccccc1C(=O)N1CCCC1
31 | 965 | O=c1ccc(-c2ccccc2)nn1CCc1nc(-c2ccccc2Br)no1
32 | 765 | O=C(NCc1ccc(Cl)cc1)C1CCN(C(=O)C2Sc3ccccc3NC2=O)CC1 (stereo not drawn)
33 | 1300 | Cc1ccccc1N1CCN(c2nccn3nc(-c4ccccc4)cc23)CC1
34 | 613 | Cc1ccc(-n2ncc3c(NCCN4CCOCC4)ncnc32)cc1Cl
35 | 1020 | COc1ccc(OC)c(-c2ccc(=O)n(CCc3nc(-c4ccc(C)cc4)no3)n2)c1
36 | 612 | CN1C(=O)[C@H]2CN(Cc3cn[nH]c3-c3cccc(Br)c3)C[C@H]2C1=O
37 | 872 | Cc1cc(C)n(-c2ccnc(N3CCC(C(=O)NC(C)c4ccc(F)cc4)CC3)n2)n1 (stereo not drawn)
38 | 1100 | Cc1ccc(Nc2c(-c3ccc([N+](=O)[O-])cc3)nc3ccc(Cl)cn23)cc1
39 | 967 | CCOc1cc(=O)n2c(c1C(=O)Nc1cc(OC)c(OC)c(OC)c1)CCCC2
40 | 823 | CCCNC(=O)c1cn(-c2ncccc2-c2nc(-c3ccccc3)no2)cn1
41 | 954 | COc1cccc(Cn2cccc(S(=O)(=O)N3CCC(C)CC3)c2=O)c1
42 | 847 | Cc1cc(Cl)ccc1NC(=O)C1CCN(c2c(C(=O)N3CCOCC3)cnc3snc(C)c23)CC1
43 | 750 | CCOc1cccc(C2CC(=O)NC3=C2C(=O)C(C(=O)OC)C(C)C3)c1 (stereo not drawn)
44 | 572 | O=C(Cn1ncc2c(N3CCN(c4ccccn4)CC3)ncnc21)Nc1ccc(F)c(F)c1

Row | RP-LC retention time [s] | SMILES
45 | 631 | Cc1ccc(CNC(=O)CCNc2c(-c3ccccc3C)nc3cnccn23)o1
46 | 527 | CN(C)C[C@@H]1CN(c2ccncn2)C[C@H]1NC(=O)c1ccc2c(c1)OCO2
47 | 766 | O=C(Nc1nnc(C2CC(=O)N(c3ccccc3)C2)o1)c1ccc(Br)cc1 (stereo not drawn)
48 | 816 | O=C(CSc1nccn(-c2ccc(F)c(F)c2)c1=O)NCc1ccccc1Cl
49 | 918 | Cc1cc(C)cc(C(=O)NC(Cc2ccccc2)c2nnc(N3CCSCC3)o2)c1 (stereo not drawn)
50 | 732 | c1ccc(-n2nnc(-c3noc(-c4ccncc4)n3)c2-c2ccncc2)cc1
51 | 742 | O=C(CCS(=O)(=O)c1ccccc1)NCc1cc(-c2ccccc2F)on1
52 | 665 | CCC1CCCCN1C(=O)c1cnc2nc(C)ccc2c1Nc1ccc(OC)cc1 (stereo not drawn)
53 | 636 | O=C(Nc1ccccc1)Nc1c(-c2ccccc2)nc2ccccn12
54 | 1140 | C=CCn1c(=O)c2ccccc2n(Cc2nc(-c3cccc(Br)c3)no2)c1=O
55 | 926 | COc1cccc(-c2noc(COC(=O)C3=CN(C)S(=O)(=O)N=C3C)n2)c1
56 | 943 | Cc1ccc(C)c(NC(=O)C2CCN(S(C)(=O)=O)c3ccccc3O2)c1 (stereo not drawn)
57 | 622 | O=C(NC1CCCCC1)C1CCCN(C(=O)c2cc(-c3cccnc3)n[nH]2)C1 (stereo not drawn)
58 | 1080 | Cc1cc(-c2nc(-c3ccc(F)cc3)no2)c(C)n1CC(=O)NC1CCCC1
59 | 890 | COc1ccccc1NS(=O)(=O)c1cc2c(s1)CCN(C(=O)C1CCC1)C2
60 | 870 | Cc1c(S(=O)(=O)N2CCC(Cc3ccccc3)CC2)c(=O)n(C)c(=O)n1C
61 | 682 | CC(C)CNC(=O)c1ccc(-n2cc(CNC(=O)C3CC3)cn2)cc1
62 | 1200 | COc1cccc(NC(=O)c2c(O)c3cccnc3n(-c3ccc(F)cc3)c2=O)c1
63 | 806 | COc1ccc(OCc2noc(CNC(=O)CSc3nc4ccccc4o3)n2)cc1
64 | 789 | Cc1cc2c(cc1S(=O)(=O)N1CCCC1C(=O)Nc1cccc(C)c1C)OCC(=O)N2 (stereo not drawn)
65 | 558 | O=C(Cc1ccc2ccccc2c1)Nc1nnc(-c2ccno2)o1
66 | 964 | Cc1ccc(Cn2ccn3nc(-c4ccccc4)c(CO)c3c2=O)cc1

Row | RP-LC retention time [s] | SMILES
67 | 863 | Cc1oc(C2CCN(S(=O)(=O)c3ccc(Cl)cc3)CC2)nc1C(=O)N(C)C
68 | 838 | O=C(NC1CCN(c2cc(-c3ccccc3)[nH]n2)CC1)c1ccc(Cl)s1
69 | 1260 | Cc1cc(Cl)ccc1S(=O)(=O)N1CCC(F)(c2nc(CC(C)C)no2)CC1
70 | 1200 | Cc1nn(C(C)C(=O)Nc2cccc(Cl)c2)c(=O)c2c(-n3cccc3)n(-c3ccccc3)nc12 (stereo not drawn)
71 | 728 | CCOC(=O)C1CCN(C(=O)C2c3cc(OC)c(OC)cc3C(=O)N(C)C2c2cccs2)CC1 (stereo not drawn)
72 | 670 | O=S(=O)(CCOc1ccc(F)cc1)Nc1ncccn1
73 | 1140 | CCC(C)NC(=O)Cn1cnc2nc(N3CCC(C(=O)NC4CC4)CC3)sc2c1=O (stereo not drawn)
74 | 877 | COCCN1C(=O)c2ccccc2C(C(=O)NCc2ccc(F)cc2)C12CCCCC2 (stereo not drawn)
75 | 661 | Cc1ccc(C(=O)N2CCc3c(c(C(=O)N4CCCC(C(=O)NC5CC5)C4)nn3C)C2)cc1 (stereo not drawn)
76 | 982 | COc1cc(OC)c(NC(=O)c2[nH]c(C)c(S(=O)(=O)N3CCCC3)c2C)cc1Cl
77 | 614 | CC(C)CC(=O)Nc1ccc(N2CCN(CC(=O)N3CCCC3)CC2)cc1C(=O)O
78 | 646 | Cc1cc(C)nc(Nc2nc(CC(=O)Nc3nc(C)c(C(=O)N(C)C)s3)cs2)n1
79 | 1190 | CCCCC(CC)C(=O)Nc1nc(-c2ccc(F)cc2)cs1 (stereo not drawn)
80 | 866 | CC(CC(=O)N1CCN(c2ccccc2)CC1)S(=O)(=O)c1ccc2c(c1)CCN2C(=O)C1CC1 (stereo not drawn)
81 | 615 | COc1ccc(NS(=O)(=O)c2cc3n(c2)CCCNC3=O)cc1
82 | 840 | Cc1c(C(=O)N2CCOCC2)cnn1-c1cc(-c2nc(C(C)C)no2)ccn1
83 | 671 | COc1ccc(C(O)CN2CCN(c3cccc(C)c3)CC2)cc1 (stereo not drawn)
84 | 732 | COc1ccc(CNC2=NCCNC23CCN(S(=O)(=O)c2ccc(C)cc2)CC3)cc1
85 | 762 | Cc1ccc(CN2CCC(CNS(=O)(=O)c3ccc4c(c3)CCCC(=O)N4)CC2)cc1
86 | 778 | COc1ccc2[nH]cc(CCNC(=O)c3ccc(F)cc3)c2c1
87 | 721 | Cc1cc(C)c(C#N)c(SCC(=O)N2CCOCC2)n1

Row | SMILES | RP-LC retention time [s]
88 | Cc1noc(C)c1S(=O)(=O)N1[C@H]2CC[C@@H]1c1cnc(-c3ccc(F)cc3)nc1C2 | 1060
